Results as given in patent US12201622B2, “Continuous delivery of lenalidomide and other immunomodulatory agents” (Starton Therapeutics, Inc., priority 2019, dated 2025).
Entries after “also recorded” stand apart in the source; their conditions may differ.

Columns and labels:
[1] = tested on: H929 multiple myeloma tumor cells; assay: Efficacy of lenalidomide continuous infusion in H929 myeloma xenograft model; type: in vivo, CB.17 SCID mouse
Source text: In this study, a composition comprising lenalidomide was continuously delivered via subcutaneous infusion or was delivered once a day via intraperitoneal injection to SCID mice wherein the mice were implanted with a H929 multiple myeloma xenograft.
(§1) Six groups of female CB.17 SCID mouse, each containing ten mice, were subcutaneously injected with 1×10^7 H929 multiple myeloma tumor cells in 50% Matrigel. After the tumor reached an average size of 100-150 mm^3, an iPrecio pump was surgically implanted into each of the mice. Dosing began twenty-four hours post pump implantation. Group 1, the control group, was treated with vehicle via intraperitoneal injection once a day. Group 2 was treated with lenalidomide via intraperitoneal injection once a day. Each of Groups 3-6 was treated lenalidomide via continuous subcutaneous infusion at different hourly rate. The dosing lasted 14 days followed by one day off the treatment and lasted for another 14 days. The iPrecio pump was replaced after 14 days. The formulation used in Groups 2-6 contains 20% PEG400 in water as the carrier. Blood was drawn at predetermined time points and analyzed
The table below lists the daily dose and schedule for each of the six groups.

[2] = Blood levels of lenalidomide in SCID mice after daily intraperitoneal dose; type: in vivo, SCID mouse; conditions: Group 2: 500 mcg ip once a day
Description: In the study described in Example 1, the SCID mice in Group 2 were given the standard of care treatment which is a daily intraperitoneal dose of 25 mg/kg (500 mcg for 20 gm mouse) administered once a day. […] For example, if the continuous blood level is greater than that observed at 16 hours but less than that observed at 10 hours in daily intraperitoneal dose of 500 mcg administered once a day, it is effective and non-toxic. The maintenance of continuous dose specific blood levels in terms of their time range are predicted to be safe and effective and result in activity in humans.
as §1
The multiple myeloma study in SCID mice provides pharmacokinetically modeled data to support three treatment paradigms. The standard of care treatment in the mouse model study is a daily intraperitoneal dose of 500 mcg administered once a day (see Group 2). […] The range of tolerable and effective blood levels ranged from the blood level at 10 hours to the blood level at 16 hours. Continuous blood levels of greater than those observed at 8 hours or 0.29 mcg/mL and lower than those observed at 18 hours or 0.013 mcg/mL were either toxic or ineffective, respectfully. The maintenance of continuous dose specific blood levels in terms of their time range are predicted to be safe and effective and result in activity in humans.

[3] = Body weight and hematologic toxicity (WBC, PLT, ANC) in xenografted SCID mice; type: in vivo, CB.17 SCID mouse; conditions: for ANC: normal range 0.77-2.5; for WBC: normal range 1.4-5.4; for PLT: normal range 733-1441
Description: as §1

[4] = Group 3: 144 μg/day (6 μg/hr) sc continuous, day 8
[5] = Group 4: 48 μg/day (2 μg/hr) sc continuous, day 8
[6] = Group 5: 24 μg/day (1 μg/hr) sc continuous, day 8
[7] = Group 6: 12 μg/day (.5 μg/hr) sc continuous, day 8

Compound: Nc1cccc2c1CN(C1CCC(=O)NC1=O)C2=O (stereo not shown) [lenalidomide, 3-(4-amino-1-3-dihydro-1-oxo-2H-isoindol-2yl)-2,6-piperidinedione]
- survival (Kaplan-Meier) ([1]; Group 2: 500 μg/day ip qd): no mouse survived at day 52
- tumor volume ([1]; Group 2: 25 mg/kg (500 μg/day) ip qd x 14/1 day off/qd x 14, 25 mg/kg): failed to inhibit the growth of the tumor volume; also recorded: slowed progression but did not inhibit the growth of the tumor size
- tumor volume ([1]; Group 3: 144 μg/day (6 μg/hr) continuous sc infusion, 14 days/1 day off/14 days): the only group having tumor volume reduced during the treatment schedule; also recorded: effectively reduced the tumor size in all animals treated at 6 mcg/hr
- survival (Kaplan-Meier) ([1]; Group 3: 144 μg/day continuous sc infusion, day 1 to day 95): the only group having mice survived for 95 days
- blood level trough [2]: 2 ng/mL
- Cmax ([2]; female, CB.17 SCID, mouse, blood, 500 ug, at 0.08 hours, read-out: blood level Cmax): 2900 ng/mL
- concentration at 8 h ([2]; female, CB.17 SCID, mouse, blood, 25 mg/kg, read-out: blood level at 8 hours): 290 ng/mL
- concentration at 18 h ([2]; female, CB.17 SCID, mouse, blood, 25 mg/kg, read-out: blood level at 18 hours): 13 ng/mL
- ANC ([3]; Group 2: 25 mg/kg ip qd, day 8): 1.2 10^3 cells/μL
- WBC ([3]; Group 2: 25 mg/kg ip qd, day 8): 1.8 10^3 cells/μL
- PLT ([3]; Group 2: 25 mg/kg ip qd, day 8): 850 10^3 cells/μL
- ANC [3, 4]: 2.4 10^3 cells/μL
- WBC [3, 4]: 2.8 10^3 cells/μL
- PLT [3, 4]: 1360 10^3 cells/μL
- ANC [3, 5]: 1.9 10^3 cells/μL
- WBC [3, 5]: 2.4 10^3 cells/μL
- PLT [3, 5]: 1345 10^3 cells/μL
- ANC [3, 6]: 2.8 10^3 cells/μL
- WBC [3, 6]: 3.3 10^3 cells/μL
- PLT [3, 6]: 1410 10^3 cells/μL
- ANC [3, 7]: 2.5 10^3 cells/μL
- WBC [3, 7]: 3.2 10^3 cells/μL
- PLT [3, 7]: 1535 10^3 cells/μL
- body weight ([3]; continuous sc infusion (Group 3, 144 μg/day)): insignificant weight loss; also recorded: did not result in substantial loss of body weight
- hematologic toxicity ([3]; continuous sc infusion, Groups 3-6 (12-144 μg/day), day 8): no substantial hematologic toxicity; also recorded: did not result in substantial loss of body weight or hematologic toxicity
